Source: patent US8535741B2, “Method and composition for administering bioactive compounds derived from Morinda citrifolia” (priority 2006, dated 2013)
Each block holds one compound with its values, some of them ahead of it.

Tests used:
Adenosine A2A = Adenosine A2A (Homo sapiens, UniProt P29274); assay: bio-assay on Adenosine A2A; conditions: isolated from squeezed juice of fresh Morinda citrifolia leaf
From the text: Their structures have been determined by NMR techniques and mass spectrometry and they have been identified as Pyro-phorbide a, Pheoporbide a, Purpin 7, and Pheophorbide Phytolester. The isolation and characterization of the above referenced bioactive compounds provides a significant explanation for the anti-inflammatory and analgesic properties of extracts derived from the Morinda citrifolia plant, particularly from the leaf of the plant.

[1] = tested on: human epidermoid carcinoma cell line-A431; assay: cells; assay type: cell-based; conditions: for Percent Grown: A431, 72-hour exposure
Method: In this example, assays were performed to detect changes in cell proliferation based on the ability of viable cells to cause alamarBlue to change from non-fluorescent blue to a reduced, fluorescent red form. With the results obtained from the alamarBlue reaction, cell proliferation can be quantified and metabolic activity of viable cells can be examined. Test compounds including Morinda citrifolia leaf extract, leaf juice, and roast leaf were tested for their effects on the proliferation of human epidermoid carcinoma cell line-A431 at assay concentrations from 0.01 to 100 μg/ml or 0.0001% to 1% through serial 10-fold dilutions.
Morinda citrifolia leaf extract, leaf juice, and roast leaf were provided by Tahitian Noni International, Inc. for in vitro anti-tumor studies. The Morinda citrifolia compounds were dissolved in sterile distilled water and then diluted with sterile distilled water to obtain initial working solutions of 10000, 1000, 100, 10, and 1 μg/ml for the leaf extract and roast leaf, as well as 100, 10, 1, 0.1 and 0.01% for the leaf juice. In testing, 100-fold dilution was made in culture media to get final assay concentrations of 100, 10, 1, 0.1 and 0.01 μg/ml, and 1, 0.1, 0.01, 0.001 and 0.0001%, respectively.
The tumor cell line, A431 (human epidermoid carcinoma), obtained from American Type Culture Collection (ATCC CRL-1555), was incubated in an air atmosphere of 5% CO2 at 37° C. The culture medium was used with Dulbecco's Modified Eagle's medium, 90%; Fetal Bovine Serum, 10% and supplemented with 1% Antibiotic-Antimycotic.
The anti-proliferation for the test substances was evaluated. Aliquots of 100 µl of cell suspension (about 3×10^3/well) were placed in 96-well microtiter plates in an atmosphere of 5% CO2 at 37° C. […] Two test compounds, leaf extract and roast leaf, were evaluated at concentrations of […]. The other compound, leaf juice, was evaluated at concentrations of 1, 0.1, 0.01, 0.001 and 0.0001%. At the end of incubation, 20 µl of 90% alamarBlue reagent was added to each well for another 6-hour incubation before detection of cell viability by fluorescent intensity. Fluorescent intensity was measured using a Spectrafluor Plus plate reader with excitation at 530 nm and demission at 590 nm.
IC50, TGI, and LC50 values were then determined. […] TGI (Total Growth Inhibition) is the test compound concentration where the number or mass of treated cells at the end of the experiment was equal to that at time0. […] The measured results were calculated by the following formula: PG(%)=100×(Mean Ftest−Mean Ftime0)^/(Mean Fctr l−Mean Ftime0)
If (Mean Ftest−Mean Ftime0)^<0, then PG(%)−100×(Mean Ftest−Mean Ftime0)/(Mean Ftime0−Mean Fblank)
Where: PG=percent growth; Mean Ftime0=The average of 2 measured fluorescent intensities of reduced alamarBlue at the time just before exposure of cells to the test substance; Mean Ftest=The average of 2 measured fluorescent intensities of alamarBlue after 72-hour exposure of cells to the test substance; Mean Fctrl=The average of 2 measured fluorescent intensities of alamarBlue after 72-hour incubation without the test substance; and Mean Fblank=The average of 2 measured fluorescent intensities of alamarBlue in medium without cells after 72-hour incubation.
A decrease of 50% or more (≧50%) in fluorescent intensity relative to the vehicle-treated control indicated significant cell growth inhibition, cytostatic or cytotoxic activity, and a semi-quantitative IC50, TGI, and LC50 were then determined by nonlinear regression using GraphPad Prism (GraphPad Software, USA).

Sequence of Adenosine A2A (P29274 whole entry): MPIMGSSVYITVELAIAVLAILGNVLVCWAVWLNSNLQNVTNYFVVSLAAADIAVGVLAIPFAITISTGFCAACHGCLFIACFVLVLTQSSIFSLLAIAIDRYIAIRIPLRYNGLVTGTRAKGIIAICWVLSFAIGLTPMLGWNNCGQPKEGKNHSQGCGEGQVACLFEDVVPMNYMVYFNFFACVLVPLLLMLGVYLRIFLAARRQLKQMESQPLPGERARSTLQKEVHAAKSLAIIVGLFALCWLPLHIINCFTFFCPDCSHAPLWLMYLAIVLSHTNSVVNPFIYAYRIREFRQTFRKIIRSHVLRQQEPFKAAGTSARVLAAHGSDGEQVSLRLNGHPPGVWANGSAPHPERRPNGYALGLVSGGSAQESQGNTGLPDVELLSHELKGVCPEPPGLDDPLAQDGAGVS

bioactivity in bio-assay on Adenosine A2A (Adenosine A2A): significant bioactivity
Compound: Pheophorbide Phytolester

bioactivity in bio-assay on Adenosine A2A (Adenosine A2A): significant bioactivity
Compound: Pyro-phorbide a

Continued, compound first:

Compound: Pheoporbide a
bioactivity in bio-assay on Adenosine A2A (Adenosine A2A): significant bioactivity

Compound: CO[C@@]12[C@H](COC(N)=O)C3=C(C(=O)C(C)=C(N)C3=O)N1C[C@@H]1N[C@@H]12 [Mitomycin]
Percent Grown ([1]; Concentration 0.001 (ttM)): 101 +/− 5%
Percent Grown ([1]; Concentration 0.01 (ttM)): 82 +/− 3%
Percent Grown ([1]; Concentration 0.1 (ttM)): 7 +/− 3%
Percent Grown ([1]; Concentration 1 (ttM)): 35 +/− 8%
Percent Grown ([1]; Concentration 10 (ttM)): 97 +/− 0%
IC50 ([1]; Homo sapiens, A-431, Tumor, Skin (A431), semi-quantitative, nonlinear regression, read-out: IC50 (50% Inhibition Concentration)): 35 nM
TGI (Total Growth Inhibition) ([1]; Tumor, Skin (A431), semi-quantitative, nonlinear regression): 190 nM
inhibitory activity on tumor cell growth ([1]; at <10 p.M, A431): Significant inhibitory activity

Compound: Purpin 7
bioactivity in bio-assay on Adenosine A2A (Adenosine A2A): significant bioactivity
